Measured values reported in US20050074879A1, “Antisense oligonucleotide modulation of STAT3 expression” (priority 2000, published 2005).
Oligonucleotides are written 5' to 3', each unit as a sugar letter and its base; * is a phosphorothioate linkage, no mark a phosphodiester; rarer units and linkages stand in square brackets, end groups in braces. Plain capitals give the bases only. e = 2'-O-(2-methoxyethyl) (MOE); [5mC] = 5-methylcytosine; d = 2'-deoxy (DNA)

system: Mouse STAT3 mRNA; experiment: Inhibition of mouse STAT3 mRNA expression in BCL1 cells (electroporation; RNase protection/Northern blot); assay type: cell-based; parameters: % mRNA INHIBITION: dose or concentration left out as unconfirmed; settings: BCL1 cells electroporated with oligonucleotide, RNA collected 24 hours later
Description: The B lymphoma cell line, BCL1 was obtained from ATCC (Rockville, Md.). BCL1 cells were cultured in RPMI 1640 medium.
BCL1 cells (5×10^6 cells in PBS) were transfected with oligonucleotides by electroporation, at 200V, […]. using a BTX Electro Cell Manipulator 600 (Genetronics, San Diego, Calif.). For an initial screen, BCL1 were electroporated with […] oligonucleotide and RNA collected 24 hours later. Controls without oligonucleotide were subjected to the same electroporation conditions.
Total cellular RNA was isolated using the RNEASY7 kit (Qiagen, Santa Clarita, Calif.). RNAse protection experiments were conducted using RIBOQUANT™ kits and template sets according to the manufacturer's instructions (Pharmingen, San Diego, Calif.). Northern blotting was performed as described in Chiang, M-Y. et al. (J. Biol. Chem., 1991, 266, 18162-18171), using a rat cDNA probe prepared by Xho I/Sal I restriction digest of psvsport-1 plasmid (ATCC, Rockville, Md.). mRNA levels were quantitated using a PhosphorImager (Molecular Dynamics, Sunnyvale, Calif.).

| Substance | % mRNA INHIBITION |
| --- | --- |
| 17148 (antisense ACTCAAACTGCCCTCCTGCT; listed as DNA, chemistry not fully specified) [compound 17148] | 31% |
| 17140 (antisense eG*e[5mC]*eT*e[5mC]*e[5mC]*dA*dA*dC*dA*dT*dC*dT*dG*dC*dT*eG*e[5mC]*eT*eT*e[5mC]) [compound 17140] | 60% |
| 17153 (antisense eA*eT*e[5mC]*eA*e[5mC]*dC*dC*dA*dC*dA*dC*dT*dC*dA*dC*eT*e[5mC]*eA*eT*eT) [compound 17153] | 56% |

same assay, conditions: BCL1 cells electroporated with oligonucleotide, RNA collected 24 hours later; control 100%

| Substance | % mRNA EXPRESSION |
| --- | --- |
| 17148 (antisense ACTCAAACTGCCCTCCTGCT; listed as DNA, chemistry not fully specified) [compound 17148] | 69% |
| 17140 (antisense eG*e[5mC]*eT*e[5mC]*e[5mC]*dA*dA*dC*dA*dT*dC*dT*dG*dC*dT*eG*e[5mC]*eT*eT*e[5mC]) [compound 17140] | 40% |
| 17153 (antisense eA*eT*e[5mC]*eA*e[5mC]*dC*dC*dA*dC*dA*dC*dT*dC*dA*dC*eT*e[5mC]*eA*eT*eT) [compound 17153] | 44% |

system: Human STAT3 mRNA; experiment: Inhibition of human STAT3 mRNA expression in U266 cells, Northern blot; assay type: cell-based; settings: Oligo concentration 2.5 μM
Description: U266 human myeloma cell lines (originally obtained from American Type Culture Collection) were maintained in RPMI 1640 medium supplemented with 10% fetal calf serum. Cells (15×10^6 cells in PBS) were transfected with oligonucleotides at 200V with a single 6-millisecond pulse using a BTX Electro Square Porator T820 (Genetronics, San Diego Calif.). The cells were incubated for 24 hours before RNA extraction.
Total cellular RNA was isolated using the Rneasy kit (Qiagen, Santa Clarita, Calif.). Northern blotting was perfomed on 15 μg of RNA using a cDNA probe prepared from MB-MDA 468 RNA by standard RT-PCR followed by a nested primer reaction. Signals were quantitated using a Molecular Dynamics Phosphorimager.
In order to examine the importance of STAT3 expression in multiple myeloma cells, a series of 20mer STAT3 antisense oligonucleotides were designed and synthesized, using phosphorothioate chemistry and incorporating 2′-O-methoxyethyl modifications to improve hybridization affinity and nuclease resistance.

| Substance | Percent inhibition of STAT3 expression |
| --- | --- |
| 17148 (antisense ACTCAAACTGCCCTCCTGCT; listed as DNA, chemistry not fully specified) [compound 17148] | 8% |
| 113210 (antisense eT*eA*eA*eA*eA*dG*dT*dG*d[5mC]*d[5mC]*d[5mC]*dA*dG*dA*dT*eT*eG*e[5mC]*eT*e[5mC]) [compound 113210] | 36% |
| 113209 (antisense eA*eA*eA*eA*eG*dT*dG*d[5mC]*d[5mC]*d[5mC]*dA*dG*dA*dT*dT*eG*e[5mC]*eT*e[5mC]*eA) [compound 113209] | 43% |
| 113187 (antisense e[5mC]*e[5mC]*eG*e[5mC]*eT*d[5mC]*d[5mC]*dA*d[5mC]*d[5mC]*dA*d[5mC]*dA*dA*dA*eG*eG*e[5mC]*eA*e[5mC]) [compound 113187] | 44% |

same assay, conditions: Oligo concentration 5 μM

| Substance | Percent inhibition of STAT3 expression |
| --- | --- |
| 17148 (antisense ACTCAAACTGCCCTCCTGCT; listed as DNA, chemistry not fully specified) [compound 17148] | 54% |
| 113210 (antisense eT*eA*eA*eA*eA*dG*dT*dG*d[5mC]*d[5mC]*d[5mC]*dA*dG*dA*dT*eT*eG*e[5mC]*eT*e[5mC]) [compound 113210] | 50% |
| 113209 (antisense eA*eA*eA*eA*eG*dT*dG*d[5mC]*d[5mC]*d[5mC]*dA*dG*dA*dT*dT*eG*e[5mC]*eT*e[5mC]*eA) [compound 113209] | 54% |
| 113187 (antisense e[5mC]*e[5mC]*eG*e[5mC]*eT*d[5mC]*d[5mC]*dA*d[5mC]*d[5mC]*dA*d[5mC]*dA*dA*dA*eG*eG*e[5mC]*eA*e[5mC]) [compound 113187] | 56% |

same assay, conditions: Oligo concentration 10 μM

| Substance | Percent inhibition of STAT3 expression |
| --- | --- |
| 17148 (antisense ACTCAAACTGCCCTCCTGCT; listed as DNA, chemistry not fully specified) [compound 17148] | 60% |
| 113210 (antisense eT*eA*eA*eA*eA*dG*dT*dG*d[5mC]*d[5mC]*d[5mC]*dA*dG*dA*dT*eT*eG*e[5mC]*eT*e[5mC]) [compound 113210] | 76% |
| 113209 (antisense eA*eA*eA*eA*eG*dT*dG*d[5mC]*d[5mC]*d[5mC]*dA*dG*dA*dT*dT*eG*e[5mC]*eT*e[5mC]*eA) [compound 113209] | 73% |
| 113187 (antisense e[5mC]*e[5mC]*eG*e[5mC]*eT*d[5mC]*d[5mC]*dA*d[5mC]*d[5mC]*dA*d[5mC]*dA*dA*dA*eG*eG*e[5mC]*eA*e[5mC]) [compound 113187] | 75% |

same assay, conditions: U266 cells, 2.5 μM oligonucleotide, electroporation, 24 hours

| Substance | % mRNA INHIBITION |
| --- | --- |
| 113172 (antisense eA*e[5mC]*e[5mC]*eG*eT*dG*dT*dG*dT*d[5mC]*dA*dA*dG*d[5mC]*dT*eG*e[5mC]*eT*eG*eT) [compound 113172] | 3.9% |
| 113170 (eA*eG*e[5mC]*eT*eG*dA*dT*dT*d[5mC]*d[5mC]*dA*dT*dT*dG*dG*eG*e[5mC]*e[5mC]*eA*eT) [compound 113170] | 10.4% |
| 17148 (antisense ACTCAAACTGCCCTCCTGCT; listed as DNA, chemistry not fully specified) [compound 17148] | 4.9% |
| 113210 (antisense eT*eA*eA*eA*eA*dG*dT*dG*d[5mC]*d[5mC]*d[5mC]*dA*dG*dA*dT*eT*eG*e[5mC]*eT*e[5mC]) [compound 113210] | 27.8% |
| 113175 (antisense eG*e[5mC]*eG*eG*e[5mC]*dT*dA*dT*dA*d[5mC]*dT*dG*d[5mC]*dT*dG*eG*eT*e[5mC]*eA*eA) [compound 113175] | 24.2% |
| 113209 (antisense eA*eA*eA*eA*eG*dT*dG*d[5mC]*d[5mC]*d[5mC]*dA*dG*dA*dT*dT*eG*e[5mC]*eT*e[5mC]*eA) [compound 113209] | 28.6% |
| 113187 (antisense e[5mC]*e[5mC]*eG*e[5mC]*eT*d[5mC]*d[5mC]*dA*d[5mC]*d[5mC]*dA*d[5mC]*dA*dA*dA*eG*eG*e[5mC]*eA*e[5mC]) [compound 113187] | 44.1% |

same assay, conditions: U266 cells, 2.5 μM oligonucleotide, electroporation, 24 hours; percent of control

| Substance | % mRNA EXPRESSION |
| --- | --- |
| 113189 (antisense eT*eT*eG*eT*eG*dT*dT*dT*dG*dT*dG*d[5mC]*d[5mC]*d[5mC]*dA*eG*eA*eA*eT*eG) [compound 113189] | 163.9% |
| 113172 (antisense eA*e[5mC]*e[5mC]*eG*eT*dG*dT*dG*dT*d[5mC]*dA*dA*dG*d[5mC]*dT*eG*e[5mC]*eT*eG*eT) [compound 113172] | 96.1% |
| 113171 (e[5mC]*e[5mC]*eA*eG*eG*dA*dG*dA*dT*dT*dA*dT*dG*dA*dA*eA*e[5mC]*eA*e[5mC]*e[5mC]) [compound 113171] | 110.2% |
| 113170 (eA*eG*e[5mC]*eT*eG*dA*dT*dT*d[5mC]*d[5mC]*dA*dT*dT*dG*dG*eG*e[5mC]*e[5mC]*eA*eT) [compound 113170] | 89.6% |
| 113178 (antisense eT*eG*eA*eT*eT*d[5mC]*dT*dT*d[5mC]*d[5mC]*d[5mC]*dA*d[5mC]*dA*dG*eG*e[5mC]*eA*e[5mC]*e[5mC]) [compound 113178] | 143.9% |
| 113211 (antisense eA*eA*eG*e[5mC]*eA*dG*dA*dT*d[5mC]*dA*d[5mC]*d[5mC]*d[5mC]*dA*d[5mC]*eA*eT*eT*e[5mC]*eA) [compound 113211] | 116.5% |
| 17148 (antisense ACTCAAACTGCCCTCCTGCT; listed as DNA, chemistry not fully specified) [compound 17148] | 95.1% |
| 113173 (antisense e[5mC]*e[5mC]*eA*eT*eT*dG*dG*dG*dA*dA*dG*d[5mC]*dT*dG*dT*e[5mC]*eA*e[5mC]*eT*eG) [compound 113173] | 119% |
| 113210 (antisense eT*eA*eA*eA*eA*dG*dT*dG*d[5mC]*d[5mC]*d[5mC]*dA*dG*dA*dT*eT*eG*e[5mC]*eT*e[5mC]) [compound 113210] | 72.2% |
| 113207 (antisense eA*eT*e[5mC]*eA*e[5mC]*d[5mC]*d[5mC]*dA*d[5mC]*dA*dT*dT*d[5mC]*dA*d[5mC]*eT*e[5mC]*eA*eT*eT) [compound 113207] | 123.6% |
| 113181 (antisense e[5mC]*e[5mC]*e[5mC]*eG*e[5mC]*d[5mC]*dA*dG*d[5mC]*dT*d[5mC]*dA*d[5mC]*dT*d[5mC]*eA*e[5mC]*eG*eA*eT) [compound 113181] | 105.4% |
| 113184 (antisense e[5mC]*eG*e[5mC]*e[5mC]*eT*d[5mC]*dT*dT*d[5mC]*d[5mC]*dA*dG*dT*d[5mC]*dA*eG*e[5mC]*e[5mC]*eA*eG) [compound 113184] | 104.3% |
| 113175 (antisense eG*e[5mC]*eG*eG*e[5mC]*dT*dA*dT*dA*d[5mC]*dT*dG*d[5mC]*dT*dG*eG*eT*e[5mC]*eA*eA) [compound 113175] | 75.8% |
| 113209 (antisense eA*eA*eA*eA*eG*dT*dG*d[5mC]*d[5mC]*d[5mC]*dA*dG*dA*dT*dT*eG*e[5mC]*eT*e[5mC]*eA) [compound 113209] | 71.4% |
| 113187 (antisense e[5mC]*e[5mC]*eG*e[5mC]*eT*d[5mC]*d[5mC]*dA*d[5mC]*d[5mC]*dA*d[5mC]*dA*dA*dA*eG*eG*e[5mC]*eA*e[5mC]) [compound 113187] | 55.9% |
